What was measured:
Test in all cases: Post-emergence efficacy, glasshouse spray test
Format in all cases: in vivo
Conditions in all cases: evaluated after 13 days
[1] = tested on: Setaia fabei (SETFA)
Protocol: (§1) Seeds of a variety of test species were sown in standard soil in pots. After cultivation for 14 days (post-emergence) under controlled conditions in a glasshouse (at 24/16° C. day/night; 14 hours light; 65% humidity), the plants were sprayed with an aqueous spray solution derived from the dissolution of the technical active ingredient formula (I) in a small amount of acetone and a special solvent and emulsifier mixture referred to as IF50 (11.12% Emulsogen EL360 TM+44.44% N-methyl pyrrolidone+44.44% Dowanol DPM glycolether), to create a 50 g/l solution which was then diluted to required concentration using 0.25% or 1% Empicol ESC70 (Sodium lauryl ether sulphate)+1% ammonium sulphate as diluent. The test plants were then grown in a glasshouse under controlled conditions (at 24/16° C., day/night; 14 hours light; 65% humidity) and watered twice daily. After 13 days the test was evaluated (100=total damage to plant; 0=no damage to plant).
(§2) Ipomoea hederacea (IPOHE), Euphorbia heterophylla (EPHHL), Chenopodium album (CHEAL), Amaranthus palmeri (AMAPA), Lolium perenne (LOLPE), Digitaria sanguinalis (DIGSA), Eleusine indica (ELEIN), Echinochloa crus-galli (ECHCG), Setaia fabei (SETFA)

[2] = tested on: Lolium perenne (LOLPE)
Protocol: as §1, §2

[3] = tested on: Amaranthus palmeri (AMAPA)
Protocol: as §1, §2

[4] = tested on: Eleusine indica (ELEIN)
Protocol: as §1, §2

[5] = tested on: Ipomoea hederacea (IPOHE)
Protocol: as §1, §2

[6] = tested on: Echinochloa crus-galli (ECHCG)
Protocol: as §1, §2

[7] = tested on: Chenopodium album (CHEAL)
Protocol: as §1, §2

[8] = tested on: Digitaria sanguinalis (DIGSA)
Protocol: as §1, §2

[9] = Setaria faberi, post-emergence, 312 h, Application Rate 500 g/Ha, read-out: Control of weed species after post-emergence application, SETFA (100=total damage to plant; 0=no damage to plant)
[10] = Lolium perenne, post-emergence, 312 h, Application Rate 500 g/Ha, read-out: Control of weed species after post-emergence application, LOLPE (100=total damage to plant; 0=no damage to plant)
[11] = Amaranthus palmeri, post-emergence, 312 h, Application Rate 500 g/Ha, read-out: Control of weed species after post-emergence application, AMAPA (100=total damage to plant; 0=no damage to plant)
[12] = Eleusine indica, post-emergence, 312 h, Application Rate 500 g/Ha, read-out: Control of weed species after post-emergence application, ELEIN (100=total damage to plant; 0=no damage to plant)
[13] = Ipomoea hederacea, post-emergence, 312 h, Application Rate 500 g/Ha, read-out: Control of weed species after post-emergence application, IPOHE (100=total damage to plant; 0=no damage to plant)
[14] = Echinochloa crus-galli, post-emergence, 312 h, Application Rate 500 g/Ha, read-out: Control of weed species after post-emergence application, ECHCG (100=total damage to plant; 0=no damage to plant)
[15] = Chenopodium album, post-emergence, 312 h, Application Rate 500 g/Ha, read-out: Control of weed species after post-emergence application, CHEAL (100=total damage to plant; 0=no damage to plant)
[16] = Digitaria sanguinalis, post-emergence, 312 h, Application Rate 500 g/Ha, read-out: Control of weed species after post-emergence application, DIGSA (100=total damage to plant; 0=no damage to plant)

Row | Compound | pest or weed control at 500 g/ha [1, 9] | pest or weed control at 500 g/ha [2, 10] | pest or weed control at 500 g/ha [3, 11] | pest or weed control at 500 g/ha [4, 12] | pest or weed control at 500 g/ha [5, 13] | pest or weed control at 500 g/ha [6, 14] | pest or weed control at 500 g/ha [7, 15] | pest or weed control at 500 g/ha [8, 16] | also measured
1 | CC(C)c1csc(-c2cc[n+](CCC(=O)O)nc2)n1.O=C([O-])C(F)(F)F [Compound A24] |  |  |  |  |  |  |  |  | Control of weed species after post-emergence application, SETFA (100=total damage to plant; 0=no damage to plant) ([1]; Application Rate 500 g/Ha): 20; Control of weed species after post-emergence application, LOLPE (100=total damage to plant; 0=no damage to plant) ([2]; Application Rate 500 g/Ha): 10; Control of weed species after post-emergence application, AMAPA (100=total damage to plant; 0=no damage to plant) ([3]; Application Rate 500 g/Ha): 0; Control of weed species after post-emergence application, ELEIN (100=total damage to plant; 0=no damage to plant) ([4]; Application Rate 500 g/Ha): 20; Control of weed species after post-emergence application, IPOHE (100=total damage to plant; 0=no damage to plant) ([5]; Application Rate 500 g/Ha): 10; Control of weed species after post-emergence application, ECHCG (100=total damage to plant; 0=no damage to plant) ([6]; Application Rate 500 g/Ha): 30; Control of weed species after post-emergence application, CHEAL (100=total damage to plant; 0=no damage to plant) ([7]; Application Rate 500 g/Ha): 0; Control of weed species after post-emergence application, DIGSA (100=total damage to plant; 0=no damage to plant) ([8]; Application Rate 500 g/Ha): 10
2 | COc1csc(-c2cc[n+](CCS(=O)(=O)[O-])nc2)n1 [Compound A26] | 40% | 30% | 20% | 40% | 40% | 20% | 40% | 30% | 
3 | Cn1nnc(-c2cc[n+](CCC(=O)O)nc2)n1 [Compound A28] | 100% | 70% | 100% | 100% | 30% | 100% | 90% | 70% | 
4 | O=C(O)CC[n+]1ccc(-c2cccs2)cn1 [Compound A41] | 0% | 0% | 0% | 0% | 10% | 0% | 60% | 0% | 
5 | O=S(=O)([O-])CC[n+]1ccc(-c2ncc(Cl)s2)cn1 [Compound A44] | 60% | 30% | 100% | 50% | 60% | 30% |  | 50% | 
6 | O=C(O)CC[n+]1ccc(-c2nc(Cl)cs2)cn1 [Compound A46] | 60% | 40% |  | 60% | 50% | 80% | 70% | 60% | 
7 | O=C(O)CC[n+]1ccc(-c2ccco2)cn1 [Compound A52] | 10% | 0% | 50% | 10% | 10% | 10% |  | 30% | 
8 | O=S(=O)([O-])CC[n+]1ccc(-c2ccco2)cn1 [Compound A53] | 40% | 20% | 60% | 60% | 50% | 30% |  | 90% | 
9 | Cc1nsc(-c2cc[n+](CCS(=O)(=O)[O-])nc2)c1C [Compound A54, 2-[4-(3,4-dimethylisothiazol-5-yl)pyridazin-1-ium-1-yl]ethanesulfonate] | 70% | 60% | 80% | 80% | 10% | 70% | 50% | 90% | 
10 | Cc1coc(-c2cc[n+](CCC(=O)O)nc2)n1 [Compound A55] | 100% | 70% | 100% | 100% | 20% | 100% | 80% | 100% | 
11 | Cc1nsc(-c2cc[n+](CCC(=O)O)nc2)c1C [Compound A58] | 90% | 30% | 80% | 40% | 20% | 70% | 50% | 90% | 
12 | COC(=O)C[n+]1ccc(-c2ncco2)cn1 [Compound A66] | 70% | 20% | 50% | 90% | 10% | 70% | 60% | 60% | 
13 | COC(=O)CCC[n+]1ccc(-c2ncco2)cn1 [Compound A69] | 90% | 30% | 90% | 90% | 40% | 80% | 90% | 90% | 
14 | OCCC[n+]1ccc(-c2ncco2)cn1 [Compound A70] | 40% | 20% | 40% | 40% | 30% | 40% | 40% | 80% | 
15 | CCOP(=O)(CC[n+]1ccc(-c2ncco2)cn1)OCC [Compound A75] |  |  |  |  |  |  |  |  | pest or weed control at 125 g/ha ([1]; Setaria faberi, post-emergence, 312 h, Application Rate 125 g/Ha, read-out: Control of weed species after post-emergence application, SETFA (100=total damage to plant; 0=no damage to plant)): 0%; pest or weed control at 125 g/ha ([2]; Lolium perenne, post-emergence, 312 h, Application Rate 125 g/Ha, read-out: Control of weed species after post-emergence application, LOLPE (100=total damage to plant; 0=no damage to plant)): 0%; pest or weed control at 125 g/ha ([3]; Amaranthus palmeri, post-emergence, 312 h, Application Rate 125 g/Ha, read-out: Control of weed species after post-emergence application, AMAPA (100=total damage to plant; 0=no damage to plant)): 0%; pest or weed control at 125 g/ha ([4]; Eleusine indica, post-emergence, 312 h, Application Rate 125 g/Ha, read-out: Control of weed species after post-emergence application, ELEIN (100=total damage to plant; 0=no damage to plant)): 0%; pest or weed control at 125 g/ha ([5]; Ipomoea hederacea, post-emergence, 312 h, Application Rate 125 g/Ha, read-out: Control of weed species after post-emergence application, IPOHE (100=total damage to plant; 0=no damage to plant)): 0%; pest or weed control at 125 g/ha ([6]; Echinochloa crus-galli, post-emergence, 312 h, Application Rate 125 g/Ha, read-out: Control of weed species after post-emergence application, ECHCG (100=total damage to plant; 0=no damage to plant)): 0%; pest or weed control at 125 g/ha ([7]; Chenopodium album, post-emergence, 312 h, Application Rate 125 g/Ha, read-out: Control of weed species after post-emergence application, CHEAL (100=total damage to plant; 0=no damage to plant)): 40%; pest or weed control at 125 g/ha ([8]; Digitaria sanguinalis, post-emergence, 312 h, Application Rate 125 g/Ha, read-out: Control of weed species after post-emergence application, DIGSA (100=total damage to plant; 0=no damage to plant)): 10%
16 | O=P(O)(O)CC[n+]1ccc(-c2ncco2)cn1 [Compound A77] | 80% | 0% | 50% | 0% | 60% | 60% | 70% | 90% | 
17 | O=P(O)(O)CCC[n+]1ccc(-c2ncco2)cn1 [Compound A78] | 50% | 10% | 70% | 0% | 50% | 20% | 80% | 60% | 
